Drawing on US12679878B2, “CRF2 receptor agonists and their use in therapy” (SANOFI, priority 2020, dated 2026), this text covers EC50 for 6 compounds.

The assay has as its target T1, human CRF2α receptor (Homo sapiens, UniProt Q13324).
T1 construct: expressed in transfected cells; host or cells: TeloHEAC
T1 sequence (Q13324 1-411): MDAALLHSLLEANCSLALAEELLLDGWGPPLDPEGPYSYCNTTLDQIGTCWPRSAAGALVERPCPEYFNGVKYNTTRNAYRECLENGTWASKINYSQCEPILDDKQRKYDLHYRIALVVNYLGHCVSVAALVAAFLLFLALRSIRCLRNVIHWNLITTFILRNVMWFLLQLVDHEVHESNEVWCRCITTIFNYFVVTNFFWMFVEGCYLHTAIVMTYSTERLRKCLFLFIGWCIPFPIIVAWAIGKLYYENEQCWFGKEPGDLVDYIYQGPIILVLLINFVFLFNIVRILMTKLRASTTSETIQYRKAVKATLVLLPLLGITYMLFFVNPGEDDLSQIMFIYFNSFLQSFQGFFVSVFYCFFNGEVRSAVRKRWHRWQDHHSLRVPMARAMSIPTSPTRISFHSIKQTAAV
In words: cAMP agonism at human CRF2 α receptor in TeloHEAC cells (Example 7). It is filed as cell-based. The conditions noted are these: cAMP HTRF, TeloHEAC cells stably expressing human CRF2 α. Summed up:
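Steps: thaw and wash cells; suspend in 1×HBSS, 20 mM HEPES, 0 or 0.1% HSA, 2 mM IBMX; add compound, 30 min RT; lyse with HTRF reagents, 1 h; read 665/620 nm. EC50 calculated, E% versus 1000 nM UCN2.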
A general note: In TR-FRET formats the signal depends on donor and acceptor labels being close together.

The mark [1] stands for this setting: 0% HSA, read-out: EC50 [nM], 0% HSA.
Where [2] appears, read: 0.1% HSA, read-out: EC50 [nM], 0.1% HSA.

Each structure is given as a SMILES string. Read-outs that look alike come from different tables or passages of the source. Starred links: 1 amine or outer side, 2 acyl side, 3 side chain; linkers in the order of their positions; H or OH if unused. Non-standard residues stand in square brackets, D forms with d. Residues, ends and D or L forms follow the SMILES beside them. Groups on a side chain read outwards from the residue. *: point of attachment. C20 diacid = O=C(O)CCCCCCCCCCCCCCCCCCC(=O)*; C18 diacid = O=C(O)CCCCCCCCCCCCCCCCC(=O)*; γGlu = O=C(O)[C@H](CCC(=O)[*:2])N[*:1]; AEEA = NCCOCCOCC(=O)O; Aib = CC(C)(N)C(=O)O

By EC50 is commonly meant the concentration that produces a half-maximal response. `CC[C@H](C)[C@H](N)C(=O)N[C@H](C(=O)N[C@@H](CC(C)C)C(=O)N[C@@H](CO)C(=O)N[C@@H](CC(C)C)C(=O)N[C@@H](CC(=O)O)C(=O)N[C@@H](C(=O)N1CCC[C@H]1C(=O)N[C@H](C(=O)N[C@@H](CCCCN)C(=O)N[C@@H](CC(C)C)C(=O)N[C@@H](CCCCNC(=O)COCCOCCNC(=O)COCCOCCNC(=O)CC[C@H](NC(=O)CC[C@H](NC(=O)CCCCCCCCCCCCCCCCC(=O)O)C(=O)O)C(=O)O)C(=O)N[C@@H](CCC(N)=O)C(=O)N[C@H](C(=O)N[C@@H](CC(C)C)C(=O)N[C@@H](CC(C)C)C(=O)N[C@@H](CCCCN)C(=O)N[C@@H](CCC(N)=O)C(=O)N[C@@H](CCC(=O)O)C(=O)N[C@@H](CCCNC(=N)N)C(=O)N[C@@H](CCC(N)=O)C(=O)N[C@@H](CCCCN)C(=O)N[C@@H](CCCCN)C(=O)N[C@@H](CCC(N)=O)C(=O)N[C@@H](CCCNC(=N)N)C(=O)N[C@@H](CCC(N)=O)C(=O)N[C@@H](CCC(N)=O)C(=O)N[C@@H](C)C(=O)N[C@@H](CCC(=O)O)C(=O)N[C@@H](CCCCN)C(=O)N[C@@H](CC(N)=O)C(=O)N[C@@H](CCCCN)C(=O)N[C@@H](CCC(N)=O)C(=O)N[C@H](C(=O)N[C@@H](CC(C)C)C(=O)N[C@@H](C)C(=O)N[C@@H](CCC(N)=O)C(=O)N[C@H](C(N)=O)C(C)C)[C@@H](C)CC)[C@@H](C)CC)[C@@H](C)CC)C(C)C)C(C)C` [compound 176] (H-IVLSLD[dV]PIKLK([AEEA-AEEA-γGlu-γGlu-C18 diacid])QILLKQERQKKQRQQAEKNKQILAQV-NH2; N-terminus assumed): the EC50 under setting [1] was 0.11 nM and the EC50 under setting [2] stood at 3.05 nM.
Consider `CC[C@H](C)[C@H](N)C(=O)N[C@H](C(=O)N[C@@H](CC(C)C)C(=O)N[C@@H](CO)C(=O)N[C@@H](CC(C)C)C(=O)N[C@@H](CC(=O)O)C(=O)N[C@@H](C(=O)N1CCC[C@H]1C(=O)N[C@H](C(=O)N[C@@H](CCCCN)C(=O)N[C@@H](CC(C)C)C(=O)N[C@@H](CCCCNC(=O)COCCOCCNC(=O)COCCOCCNC(=O)CC[C@H](NC(=O)CC[C@H](NC(=O)CCCCCCCCCCCCCCCCCCC(=O)O)C(=O)O)C(=O)O)C(=O)N[C@@H](CCC(N)=O)C(=O)N[C@H](C(=O)N[C@@H](CC(C)C)C(=O)N[C@@H](CC(C)C)C(=O)N[C@@H](CCCCN)C(=O)N[C@@H](CCC(N)=O)C(=O)N[C@@H](CCC(=O)O)C(=O)N[C@@H](CCCNC(=N)N)C(=O)N[C@@H](CCC(N)=O)C(=O)N[C@@H](CCCCN)C(=O)N[C@@H](CCCCN)C(=O)N[C@@H](CCC(N)=O)C(=O)N[C@@H](CCCNC(=N)N)C(=O)N[C@@H](CCC(N)=O)C(=O)N[C@@H](CCC(N)=O)C(=O)N[C@@H](C)C(=O)N[C@@H](CCC(=O)O)C(=O)N[C@@H](CCCCN)C(=O)N[C@@H](CC(N)=O)C(=O)N[C@@H](CCCCN)C(=O)N[C@@H](CCC(N)=O)C(=O)N[C@H](C(=O)N[C@@H](CC(C)C)C(=O)N[C@@H](C)C(=O)N[C@@H](CCC(N)=O)C(=O)N[C@H](C(N)=O)C(C)C)[C@@H](C)CC)[C@@H](C)CC)[C@@H](C)CC)C(C)C)C(C)C` [compound 177] (H-IVLSLD[dV]PIKLK([AEEA-AEEA-γGlu-γGlu-C20 diacid])QILLKQERQKKQRQQAEKNKQILAQV-NH2), for which the EC50 under setting [1] was 0.07 nM and the EC50 under setting [2] was 5.19 nM.
Take `CC[C@H](C)[C@H](N)C(=O)N[C@H](C(=O)N[C@@H](CC(C)C)C(=O)N[C@@H](CO)C(=O)N[C@@H](CC(C)C)C(=O)N[C@@H](CC(=O)O)C(=O)N[C@@H](C(=O)N1CCC[C@H]1C(=O)N[C@H](C(=O)N[C@@H](CCCCN)C(=O)N[C@@H](CC(C)C)C(=O)N[C@@H](CCCCNC(=O)COCCOCCNC(=O)COCCOCCNC(=O)CC[C@H](NC(=O)CCCCCCCCCCCCCCCCCCC(=O)O)C(=O)O)C(=O)N[C@@H](CCC(N)=O)C(=O)N[C@H](C(=O)N[C@@H](CC(C)C)C(=O)N[C@@H](CC(C)C)C(=O)N[C@@H](CCCCN)C(=O)N[C@@H](CCC(N)=O)C(=O)N[C@@H](CCC(=O)O)C(=O)N[C@@H](CCCNC(=N)N)C(=O)N[C@@H](CCC(N)=O)C(=O)N[C@@H](CCCCN)C(=O)N[C@@H](CCCCN)C(=O)N[C@@H](CCC(N)=O)C(=O)N[C@@H](CCCNC(=N)N)C(=O)N[C@@H](CCC(N)=O)C(=O)N[C@@H](CCC(N)=O)C(=O)N[C@@H](C)C(=O)N[C@@H](CCC(=O)O)C(=O)N[C@@H](CCCCN)C(=O)N[C@@H](CC(N)=O)C(=O)N[C@@H](CCCCN)C(=O)N[C@@H](CCC(N)=O)C(=O)N[C@H](C(=O)N[C@@H](CC(C)C)C(=O)N[C@@H](C)C(=O)N[C@@H](CCC(N)=O)C(=O)N[C@H](C(N)=O)C(C)C)[C@@H](C)CC)[C@@H](C)CC)[C@@H](C)CC)C(C)C)C(C)C` [compound 178] (H-IVLSLD[dV]PIKLK([AEEA-AEEA-γGlu-C20 diacid])QILLKQERQKKQRQQAEKNKQILAQV-NH2; N-terminus assumed): the EC50 reads like this: under setting [1], 0.04 nM; under setting [2], 3.77 nM.
On to `CC[C@H](C)[C@H](N)C(=O)N[C@H](C(=O)N[C@@H](CC(C)C)C(=O)N[C@@H](CO)C(=O)N[C@@H](CC(C)C)C(=O)N[C@@H](CC(=O)O)C(=O)N[C@@H](C(=O)N1CCC[C@H]1C(=O)N[C@H](C(=O)N[C@@H](CCCCN)C(=O)N[C@@H](CC(C)C)C(=O)N[C@@H](CCCCNC(=O)CC[C@H](NC(=O)CCCCCCCCCCCCCCCCC(=O)O)C(=O)O)C(=O)N[C@@H](CCC(N)=O)C(=O)N[C@H](C(=O)N[C@@H](CC(C)C)C(=O)N[C@@H](CC(C)C)C(=O)N[C@@H](CCCCN)C(=O)N[C@@H](CCC(N)=O)C(=O)N[C@@H](CCC(=O)O)C(=O)N[C@@H](CCCNC(=N)N)C(=O)N[C@@H](CCC(N)=O)C(=O)N[C@@H](CCCCN)C(=O)NC(C)(C)C(=O)N[C@@H](CCC(N)=O)C(=O)N[C@@H](CCCNC(=N)N)C(=O)N[C@@H](CCC(=O)O)C(=O)N[C@@H](CCC(N)=O)C(=O)N[C@@H](C)C(=O)N[C@@H](CCC(=O)O)C(=O)N[C@@H](CCCCN)C(=O)N[C@@H](CC(N)=O)C(=O)N[C@@H](CCCCN)C(=O)N[C@@H](CCC(N)=O)C(=O)N[C@H](C(=O)N[C@@H](CC(C)C)C(=O)N[C@@H](C)C(=O)N[C@@H](CCC(N)=O)C(=O)N[C@H](C(N)=O)C(C)C)[C@@H](C)CC)[C@@H](C)CC)[C@@H](C)CC)C(C)C)C(C)C` [compound 179] (H-IVLSLD[dV]PIKLK([γGlu-C18 diacid])QILLKQERQK[Aib]QREQAEKNKQILAQV-NH2; N-terminus assumed), for which the EC50 under setting [1] came to 0.03 nM and the EC50 under setting [2] was 1.88 nM.
For `CC[C@H](C)[C@H](N)C(=O)N[C@H](C(=O)N[C@@H](CC(C)C)C(=O)N[C@@H](CO)C(=O)N[C@@H](CC(C)C)C(=O)N[C@@H](CC(=O)O)C(=O)N[C@@H](C(=O)N1CCC[C@H]1C(=O)N[C@H](C(=O)N[C@@H](CCCCN)C(=O)N[C@@H](CC(C)C)C(=O)N[C@@H](CCCCNC(=O)CC[C@H](NC(=O)CCCCCCCCCCCCCCCCC(=O)O)C(=O)O)C(=O)N[C@@H](CCC(N)=O)C(=O)N[C@H](C(=O)N[C@@H](CC(C)C)C(=O)N[C@@H](CC(C)C)C(=O)N[C@@H](CCCCN)C(=O)N[C@@H](CCC(N)=O)C(=O)N[C@@H](C)C(=O)N[C@@H](CCCNC(=N)N)C(=O)N[C@@H](CCC(N)=O)C(=O)N[C@@H](CCCCN)C(=O)NC(C)(C)C(=O)N[C@@H](CCC(N)=O)C(=O)N[C@@H](CCCNC(=N)N)C(=O)N[C@@H](C)C(=O)N[C@@H](CCC(N)=O)C(=O)N[C@@H](C)C(=O)N[C@@H](CCC(=O)O)C(=O)N[C@@H](CCCCN)C(=O)N[C@@H](CC(N)=O)C(=O)N[C@@H](CCCCN)C(=O)N[C@@H](CCCNC(=N)N)C(=O)N[C@H](C(=O)N[C@@H](CC(C)C)C(=O)N[C@@H](CCC(=O)O)C(=O)N[C@@H](CCCNC(=N)N)C(=O)N[C@H](C(N)=O)C(C)C)[C@@H](C)CC)[C@@H](C)CC)[C@@H](C)CC)C(C)C)C(C)C` [compound 180] (H-IVLSLD[dV]PIKLK([γGlu-C18 diacid])QILLKQARQK[Aib]QRAQAEKNKRILERV-NH2; N-terminus assumed) the same measures were 0.05 nM and 1.74 nM.
For `CC[C@H](C)[C@H](N)C(=O)N[C@H](C(=O)N[C@@H](CC(C)C)C(=O)N[C@@H](CO)C(=O)N[C@@H](CC(C)C)C(=O)N[C@@H](CC(=O)O)C(=O)N[C@@H](C(=O)N1CCC[C@H]1C(=O)N[C@H](C(=O)N[C@@H](CCCCN)C(=O)N[C@@H](CC(C)C)C(=O)N[C@@H](CCCCNC(=O)CC[C@H](NC(=O)CCCCCCCCCCCCCCCCC(=O)O)C(=O)O)C(=O)N[C@@H](CCC(N)=O)C(=O)N[C@H](C(=O)N[C@@H](CC(C)C)C(=O)N[C@@H](CC(C)C)C(=O)N[C@@H](CCCCN)C(=O)N[C@@H](CCC(N)=O)C(=O)N[C@@H](CCC(=O)O)C(=O)N[C@@H](CCCNC(=N)N)C(=O)N[C@@H](CCC(N)=O)C(=O)N[C@@H](CCCCN)C(=O)N[C@@H](CCCCN)C(=O)N[C@@H](CCC(N)=O)C(=O)N[C@@H](CCCNC(=N)N)C(=O)N[C@@H](CCC(N)=O)C(=O)N[C@@H](CCC(N)=O)C(=O)N[C@@H](C)C(=O)N[C@@H](CCC(=O)O)C(=O)N[C@@H](CCCCN)C(=O)N[C@@H](CC(N)=O)C(=O)N[C@@H](CCCCN)C(=O)N[C@@H](CCC(N)=O)C(=O)N[C@H](C(=O)N[C@@H](CC(C)C)C(=O)N[C@@H](C)C(=O)N[C@@H](CCC(N)=O)C(=O)N[C@H](C(N)=O)C(C)C)[C@@H](C)CC)[C@@H](C)CC)[C@@H](C)CC)C(C)C)C(C)C` [compound 181] (H-IVLSLD[dV]PIKLK([γGlu-C18 diacid])QILLKQERQKKQRQQAEKNKQILAQV-NH2; N-terminus assumed) the same measures were 1.18 nM and 15.3 nM.
